Literature values, collected in patent publication US20100112105A1, “Antimicrobial efficacy of aframomum Melegueta extract against propionibacterium acnes” (ACCESS BUSINESS GROUP INTERNATIONAL LLC, priority 2008, published 2010).

Tested on: Mycobacterium chelonei, M. intracellulare, M. smegmatis, and M. xenopi
Conditions: Galal, Pharmaceutical Biology 1996

SMILES	activity against mycobacteria
COc1cc(CCC(C)=O)ccc1O [gingerone]	inactive
CCCCCCCC(=O)CCc1ccc(O)c(OC)c1 [6-paradol]	active
CCCCC/C=C/C(=O)CCc1ccc(O)c(OC)c1 [6-shogaol]	active
